This is an account of results in patent publication US20100324059A1, “PHARMACEUTICAL COMPOSITIONS USEFUL FOR TREATING HCV” (Gilead Sciences, Inc., priority 2009, published 2010).

In the test the test system is HCV genotype 1b replicon cells (Huh-luc). Put plainly: Antiviral combination study of Compound 1 and Compound 2 in the HCV 1b replicon system (luciferase readout, MacSynergy II analysis). The class given is cell-based. How it is done: HCV genotype 1b replicon cells (Huh-luc) were obtained from Reblikon (Mainz, Germany). The replicon in these cells is designated I389luc-ubi-neo/NS3-3′/ET and encodes a selectable resistance marker (neomycin phosphotransferase) as well as the firefly luciferase reporter gene. Huh-luc cells were maintained in Dulbecco's Modified Eagle's Medium (DMEM; GIBCO, Carlsbad, Calif.) supplemented with 10% fetal bovine serum (FBS; Hyclone, Logan, Utah) and 0.5 mg/mL of G-418 (GIBCO). Cells were passaged twice a week and maintained at subconfluent levels.
Replicon cells were seeded in 96-well plates at a density of 5×10^3 cells per well in 100 μL of DMEM culture medium, excluding G-418. Compounds 1 and 2 were serially diluted 1:3 in 100% DMSO (Sigma). These serial dilutions were added to the cells at a 1:200 dilution to achieve a final concentration of 0.5% DMSO in a total volume of 200 μL. Plates were incubated at 37° C. for 3 days, after which culture media were removed and cells were lysed and assayed for luciferase activity using a commercial luciferase assay (Promega, Madison, Wis.). HCV replication levels in drug-treated samples were expressed as a percentage of those in untreated controls (defined as 100%), and data were fit to the logistic dose response equation y=a/(1+(x/b)c) using XLFit4 software (IDBS, Emeryville, Calif.). EC50 values were calculated from the resulting equations as described previously (Delaney, W. E., et al., Antimicrobial Agents Chemotherapy, 45(6):1705-1713 (2001)).
Replicon cells were seeded in 96-well plates at a density of 5×10^3 cells per well in 100 μL of culture medium. Compounds 1 and 2 were serially diluted in 100% DMSO as described above and added in a matrix format to 96-well plates, achieving a defined set of different drug concentrations and ratios in a final volume of 200 μL and a final DMSO concentration of 0.5%. For each individual drug, the EC50 value was selected as the midpoint for the concentration range tested. Cells were incubated for three days and analyzed for luciferase expression as indicated above. For the combination study, two independent experiments were performed in triplicate.
The calculated volumes of surface deviations are expressed in nM^2%. Per Prichard and Shipman, combination effects are defined as: • Highly synergistic if volumes >100 nM^2. • Moderately synergistic if volumes are >50 and ≦100 nM^2. • Additive if volumes are >−50 nM^2 and ≦50 nM^2. • Moderately antagonistic if volumes are >−100 nM^2 and ≦−50 nM^2. • Antagonistic if volumes are ≦−100 nM^2.
For orientation: A replicon is a self-replicating genome or part of one, used to study replication in cells.

The mark [1] stands for this setting: drug used in combination with Compound 1, 3 days, mean ± standard deviation of two or three independent experiments in triplicate.

As to `Fc1ccccc1-c1nc2ccn(Cc3ccc(-c4ccc(C(F)(F)F)cc4C(F)(F)F)nn3)cc-2n1` [Compound 1, 5-({6-[2,4-bis(trifluoromethyl)phenyl]pyridazin-3-yl}methyl)-2-(2-fluorophenyl)-5H-imidazo[4,5-c]pyridine], the interaction entry (Compound 1 with Compound 2) is “moderate synergistic interaction”.

`CCC[C@H](NC(=O)[C@@H]1[C@H]2CCC[C@H]2CN1C(=O)[C@@H](NC(=O)[C@@H](NC(=O)c1cnccn1)C1CCCCC1)C(C)(C)C)C(=O)C(=O)NC1CC1` [Compound 2, (1S,3aR,6aS)—N-[1(S)-[2-(Cyclopropylamino)oxalyl]butyl]-2-[N-(pyrazin-2-ylcarbonyl)-L-cyclohexylglycyl-3-methyl-L-valyl]perhydrocyclopenta[c]pyrrole-1-carboxamide]: under setting [1], the “Antagonism Volume” value came to 0 ± 0 nM^2 and the “Synergy Volume” value is given as 79.5 ± 10.5 nM^2. Further, the interaction result (drug used in combination with Compound 1, classification per Prichard and Shipman) is given as “Moderate synergy”.
